Test [1] deals with T1, 5-LOX (human recombinant) (Homo sapiens, UniProt P09917).
T1 construct: purchased Sigma Aldrich 437996
T1 sequence (P09917 1-674): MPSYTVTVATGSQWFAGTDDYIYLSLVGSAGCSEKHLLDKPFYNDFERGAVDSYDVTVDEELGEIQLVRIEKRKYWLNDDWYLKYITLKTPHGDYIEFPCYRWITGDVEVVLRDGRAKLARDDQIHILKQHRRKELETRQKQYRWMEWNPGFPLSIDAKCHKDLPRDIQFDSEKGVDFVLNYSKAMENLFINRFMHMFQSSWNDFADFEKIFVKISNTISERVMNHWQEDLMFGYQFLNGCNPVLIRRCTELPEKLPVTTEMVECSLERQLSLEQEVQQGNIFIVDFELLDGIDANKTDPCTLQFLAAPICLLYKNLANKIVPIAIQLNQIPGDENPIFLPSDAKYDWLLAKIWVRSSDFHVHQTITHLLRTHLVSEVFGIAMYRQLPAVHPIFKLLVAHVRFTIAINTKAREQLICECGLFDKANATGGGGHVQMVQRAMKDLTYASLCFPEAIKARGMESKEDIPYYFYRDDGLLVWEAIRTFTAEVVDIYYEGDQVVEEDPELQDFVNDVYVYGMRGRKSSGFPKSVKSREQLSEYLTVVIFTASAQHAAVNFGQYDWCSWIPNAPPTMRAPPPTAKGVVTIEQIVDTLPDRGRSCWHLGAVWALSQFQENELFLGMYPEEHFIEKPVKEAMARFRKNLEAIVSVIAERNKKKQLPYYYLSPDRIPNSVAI
Kind of test: 5-lipoxygenase inhibitory assay (5-LOX assay kit). Format: biochemical. Conditions: mean ± SD, n=3; for inhibition at 2.5 µg/mL / inhibition at 5 µg/mL / inhibition at 7.5 µg/mL / inhibition at 10 µg/mL: read-out: Percentage inhibition 5-LOX. The procedure:
To 90 µl of 5-LOX enzyme solution added different test sample concentrations, 100 µl of de chromogen, and finally added 10 µl of the substrate (arachidonic acid) and gently shake or 10 min and absorbance was measured at 490 nm against the blank. The % inhibition was deliberated with the absorbance values by which IC50 values were calculated by linear regression.

The target in test [2] is T2, COX-1 (Ovis aries, UniProt P05979).
T2 construct: purchased Cayman 560131
T2 sequence (P05979 25-600): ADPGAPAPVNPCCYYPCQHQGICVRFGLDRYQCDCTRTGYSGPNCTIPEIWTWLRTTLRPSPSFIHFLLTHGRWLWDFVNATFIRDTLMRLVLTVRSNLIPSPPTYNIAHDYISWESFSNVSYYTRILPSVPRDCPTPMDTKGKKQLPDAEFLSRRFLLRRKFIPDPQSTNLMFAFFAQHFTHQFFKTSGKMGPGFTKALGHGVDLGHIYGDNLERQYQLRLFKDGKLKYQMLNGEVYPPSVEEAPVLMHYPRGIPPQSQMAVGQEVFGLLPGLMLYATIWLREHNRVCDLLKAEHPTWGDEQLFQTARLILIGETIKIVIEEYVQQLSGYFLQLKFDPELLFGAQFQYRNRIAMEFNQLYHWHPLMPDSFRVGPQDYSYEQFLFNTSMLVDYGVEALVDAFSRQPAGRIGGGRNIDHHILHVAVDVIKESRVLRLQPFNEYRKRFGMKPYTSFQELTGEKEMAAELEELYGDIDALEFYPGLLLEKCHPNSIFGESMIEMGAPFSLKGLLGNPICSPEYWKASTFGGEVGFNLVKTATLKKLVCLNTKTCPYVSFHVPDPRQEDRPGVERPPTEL
Kind of test: Cyclooxygenase COX-1 inhibitory assay (Cayman COX inhibitor assay kit). Format: biochemical, ovine. Conditions: mean ± SD, n=3; for inhibition at 2.5 µg/mL / inhibition at 5 µg/mL / inhibition at 7.5 µg/mL / inhibition at 10 µg/mL: read-out: Percentage inhibition COX1. Here is the method:
(§1) To 10 µl of either COX1 or COX2 added 0.1 M Tris–HCl buffer (960 µl) and different known concentrations of test samples and incubated at 37 °C for 10 min. Later 10 µl of 100 µM arachidonic acid, after 2 min 1 M HCl of 50 µl and Ellman’s reagent, were added. The absorbance was measured spectrophotometrically at 410 nm against the blank. The percentage of inhibition was deliberated with the absorbance values, and IC50 values were calculated by linear regression.

In test [3] the target is T3, COX-2 (Homo sapiens, UniProt P35354).
T3 construct: purchased Cayman 560131
T3 sequence (P35354 18-604): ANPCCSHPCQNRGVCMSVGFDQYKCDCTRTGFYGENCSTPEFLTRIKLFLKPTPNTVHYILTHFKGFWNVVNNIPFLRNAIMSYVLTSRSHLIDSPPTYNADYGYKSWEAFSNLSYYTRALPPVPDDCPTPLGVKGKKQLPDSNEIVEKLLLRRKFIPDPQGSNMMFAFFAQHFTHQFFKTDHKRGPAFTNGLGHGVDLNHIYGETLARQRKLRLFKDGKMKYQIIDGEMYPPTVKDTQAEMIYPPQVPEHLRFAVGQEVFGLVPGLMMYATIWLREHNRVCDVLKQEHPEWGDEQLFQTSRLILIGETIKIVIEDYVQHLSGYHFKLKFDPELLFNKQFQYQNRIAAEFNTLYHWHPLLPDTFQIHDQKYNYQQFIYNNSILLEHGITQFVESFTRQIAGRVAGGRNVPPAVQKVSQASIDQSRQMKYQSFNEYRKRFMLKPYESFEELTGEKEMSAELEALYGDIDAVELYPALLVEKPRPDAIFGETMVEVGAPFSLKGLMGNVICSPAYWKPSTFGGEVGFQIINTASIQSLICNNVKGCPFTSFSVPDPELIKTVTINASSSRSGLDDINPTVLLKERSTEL
Kind of test: Cyclooxygenase COX-2 inhibitory assay (Cayman COX inhibitor assay kit). Format: biochemical. Conditions: mean ± SD, n=3; for inhibition at 2.5 µg/mL / inhibition at 5 µg/mL / inhibition at 7.5 µg/mL / inhibition at 10 µg/mL: read-out: Percentage inhibition COX2. The procedure: as §1

Setting [4] is: IC50 5-LOX (concentration required for 50% inhibition), Fig. 2.
The mark [5] stands for this setting: linear regression, read-out: IC50 values 5-LOX (converted).
[6] abbreviates: linear regression, read-out: IC50 values COX1 (converted).
Setting [7] is: linear regression, read-out: IC50 values COX2 (converted).

Like-named read-outs stand apart in the source and are kept apart here.

For orientation: inhibition means how much of the control response was suppressed. As usually defined, the IC50 is the midpoint of a concentration-inhibition curve. For `CC1=CCCC2C1(C)CCC(C)C2(C)CCC(C=O)=CC(=O)O` (stereo not shown) [Compound 1, 16-oxo-cleroda-3,13(14)E-dien-15-oic acid], the inhibition at 2.5 µg/mL in test [1] is 13.4 ± 0.72%; in test [2], 21.8 ± 1.55%; in test [3], 10.7 ± 2.91%. Further, the inhibition at 5 µg/mL stood at 25.7 ± 2.74% in test [1], 40.3 ± 3.77% in test [2] and 23.4 ± 3.07% in test [3]. In addition, the figures for the inhibition at 7.5 µg/mL in test [1], in test [2] and in test [3] were 41.1 ± 1.43%, 47.1 ± 2.71% and 42.8 ± 0.72%, respectively. Moreover, the inhibition at 10 µg/mL in test [1] stood at 65.4 ± 0.93%; in test [2] it was 60.4 ± 4.48%; in test [3] it was 62.9 ± 3.84%. Moreover, the IC50 in test [1] (setting [4]) is 26.4 ± 0.39 µM; in test [1] (setting [5]), 26.4 µM; in test [2] (Fig. 2, read-out: IC50 COX-1), 25.1 ± 0.99 µM; in test [2] (setting [6]), 25.1 µM; in test [3] (Fig. 2, read-out: IC50 COX-2), 26.4 ± 0.45 µM; in test [3] (setting [7]), 26.4 µM.

For the compound `CC1=CCCC2C1(C)CCC(C)C2(C)CCC(=CC(=O)O)CO` (stereo not shown) [Compound 2, 16-hydroxy-cleroda-3,13-dien-15-oic acid], the inhibition at 2.5 µg/mL in test [1] turned out to be 12.5 ± 1.45%; in test [2], 16.3 ± 3%; in test [3], 34.5 ± 2.11%. The inhibition at 5 µg/mL in test [1] came to 24.5 ± 1.92%; in test [2] it was 28.3 ± 3.1%; in test [3], 59.2 ± 0.77%. The inhibition at 7.5 µg/mL in test [1] was found to be 40 ± 4.41%; in test [2], 42.5 ± 1.68%; in test [3], 77.4 ± 0.9%. Further, the inhibition at 10 µg/mL in test [1] stood at 51.2 ± 1.35%; in test [2], 50.9 ± 0.6%; in test [3], 85 ± 1.17%. The IC50 in test [1] (setting [4]) was 30.5 ± 0.53 µM; in test [1] (setting [5]), 30.5 µM; in test [2] (Fig. 2, read-out: IC50 COX-1), 30.44 ± 0.3 µM; in test [2] (setting [6]), 30.4 µM; in test [3] (Fig. 2, read-out: IC50 COX-2), 12.7 ± 0.34 µM; in test [3] (setting [7]) it was 12.7 µM.

On to `C=C1CCCC2C1(C)CCC(C)C2(C)CCC1=CC(=O)OC1O` (stereo not shown) [Compound 3, 16-hydroxy-cleroda-4(18),13-dien-16,15-olide], for which the values for the inhibition at 2.5 µg/mL in test [1], in test [2] and in test [3] were 34.7 ± 1.47%, 38.1 ± 0.72% and 48.8 ± 0.96%, respectively. Besides, the inhibition at 5 µg/mL in test [1] was found to be 59.3 ± 0.66%; in test [2] it was 61.5 ± 1.84%; in test [3] it was 63.2 ± 1.41%. In addition, the figures for the inhibition at 7.5 µg/mL in test [1], in test [2] and in test [3] were 77.5 ± 0.92%, 68.3 ± 2.99% and 73.3 ± 1.15%, respectively. The inhibition at 10 µg/mL in test [1] is 85 ± 1.05%; in test [2] it was 83.9 ± 2.27%; in test [3], 82.97 ± 0.44%. For the same compound, the half-inhibitory concentration (IC50) in test [1] (setting [4]) was 12.7 ± 0.21 µM; in test [1] (setting [5]), 12.7 µM; in test [2] (Fig. 2, read-out: IC50 COX-1) it was 11.8 ± 0.19 µM; in test [2] (setting [6]) it was 11.8 µM; in test [3] (Fig. 2, read-out: IC50 COX-2) it was 8.49 ± 0.55 µM; in test [3] (setting [7]), 8.51 µM.

On to `C=C1C(O)CCC2C1(C)CCC(C)C2(C)CCC1=CC(=O)OC1O` (stereo not drawn) [Compound 4, 3α,16α-dihydroxy-cleroda-4(18),13(14)Z-dien-15,16-olide], for which the inhibition at 2.5 µg/mL was 23.2 ± 2.28% in test [1], 40.8 ± 0.79% in test [2] and 36.8 ± 2.52% in test [3]. Moreover, the inhibition at 5 µg/mL in test [1] was 44.3 ± 1.68%; in test [2] it was 61.1 ± 0.69%; in test [3], 55.21 ± 0.43%. The inhibition at 7.5 µg/mL stood at 55.4 ± 0.65% in test [1], 72.3 ± 3.77% in test [2] and 67.1 ± 2.47% in test [3]. For the same compound, the inhibition at 10 µg/mL in test [1] amounted to 67.2 ± 2.67%; in test [2], 79.5 ± 2.53%; in test [3], 75.1 ± 2.73%. Further, the IC50 in test [1] (setting [4]) is 16.9 ± 0.56 µM; in test [1] (setting [5]), 17 µM; in test [2] (Fig. 2, read-out: IC50 COX-1) it was 10.8 ± 0.17 µM; in test [2] (setting [6]) it was 10.9 µM; in test [3] (Fig. 2, read-out: IC50 COX-2), 12.8 ± 0.21 µM; in test [3] (setting [7]), 12.8 µM.

As for `CC1=CCCC2C1(C)CCC(C)C2(C)CCC1=CC(=O)OC1O` (stereo not drawn) [Compound 5, 16α-hydroxy-cleroda-3,13(14)Z-dien-15,16-olide], the results for the inhibition at 2.5 µg/mL in test [1], in test [2] and in test [3] were 30 ± 1.04%, 42.3 ± 2.05% and 46.6 ± 0.9%, respectively. Further, the results for the inhibition at 5 µg/mL in test [1], in test [2] and in test [3] were 54.1 ± 1.1%, 79.5 ± 1.01% and 57.2 ± 1.57%, respectively. Moreover, the inhibition at 7.5 µg/mL in test [1] is 67.2 ± 4.61%; in test [2], 86.5 ± 1.27%; in test [3] it was 69.3 ± 3.66%. In addition, the figures for the inhibition at 10 µg/mL in test [1], in test [2] and in test [3] were 75.8 ± 2.97%, 92.9 ± 2.46% and 79.4 ± 4.39%, respectively. For the same compound, the IC50 was 14.4 ± 0.32 µM in test [1] (setting [4]); 14.4 µM in test [1] (setting [5]); 9.46 ± 0.33 µM in test [2] (Fig. 2, read-out: IC50 COX-1); 9.45 µM in test [2] (setting [6]); 10.3 ± 0.26 µM in test [3] (Fig. 2, read-out: IC50 COX-2); 10.3 µM in test [3] (setting [7]).

For the compound `O=C(O)Cc1ccccc1Nc1c(Cl)cccc1Cl` [Diclofenac, reference compound], in test [1], the inhibition at 2.5 µg/mL is 12.4 ± 1.49%, the inhibition at 5 µg/mL was 23.1 ± 4.16%, the inhibition at 7.5 µg/mL amounted to 42.8 ± 1.82% and the inhibition at 10 µg/mL was found to be 64.4 ± 0.72%.

(Values after paper PMC7524750, “Dual COX and 5-LOX inhibition by clerodane diterpenes from seeds of Polyalthia longifolia (Sonn.) Thwaites” (Scientific Reports, 2020).)
